The assay has as its system Plasmodium berghei. Kind of assay: Luciferase/luciferin-expressing antifolate-resistant parasites were used to infect a culture of HepG2 cells that were pre-incubated with compounds. Infected hepatocytes emit light due to the luciferase reaction. Assay results are presented as the percent inhibition of light emission compared to control. […]. The class given is functional. The settings on record: sporozoite; for IC90: read-out: LUCIFERASE INFECTION ASSAY - IC90.

The mark [1] stands for this setting: read-out: LUCIFERASE INFECTION ASSAY - IC50.

Each structure is given as a SMILES string.

Results on 38 compounds are retold here after ChEMBL document CHEMBL4483862, “Open-source discovery of chemical leads for next-generation chemoprotective antimalarials” (2018).

What is called IC50 is the concentration that gives 50% inhibition. As usually defined, the IC90 is the concentration at which the effect reaches the 90% level. Turning to `N#CC(C#N)=NNc1cc(Cl)cc(Cl)c1`, the IC90 is 0.565 µM. For the same compound, the IC50 (HEPG2TOX_HILL_SLOPE 2.85, HEPG2TOX_R_SQUARED 0.913, PBLUC_HILL_SLOPE 19.7, PBLUC_R_SQUARED 0.581, read-out: LUCIFERASE INFECTION ASSAY - IC50) is 0.505 µM.

In the case of `Cc1cc(=O)n2nc(C)c(-c3ccc(F)cc3)c2[nH]1`, the IC90 was above 12.8 µM. Besides, the IC50 (PBLUC_HILL_SLOPE 15.8, PBLUC_R_SQUARED 0.105, read-out: LUCIFERASE INFECTION ASSAY - IC50) was above 12.8 µM.

On to `CCn1ccnc1C(=O)Nc1nc(-c2ccc3c(c2)OCCO3)cs1`, for which the IC90 was found to be 1.92 µM. Moreover, the IC50 (HEPG2TOX_HILL_SLOPE 10.1, HEPG2TOX_R_SQUARED 0.135, PBLUC_HILL_SLOPE 182, PBLUC_R_SQUARED 0.438, read-out: LUCIFERASE INFECTION ASSAY - IC50) amounted to 1.89 µM.

On to `Cc1nc2ccccc2n1CCNC(=O)N1CCN(c2ccc(C(F)(F)F)cc2[N+](=O)[O-])CC1`, for which the IC90 is above 10 µM. The half-inhibitory concentration (IC50) under setting [1] was above 10 µM.

For the compound `COc1ccc(COC(=O)c2cc(C)nc3ccccc23)cc1F`, the concentration for an effect of 90% (IC90) worked out at 0.157 µM. For the setting “HEPG2TOX_HILL_SLOPE 0.536, HEPG2TOX_R_SQUARED 0.687, PBLUC_HILL_SLOPE 9.99, PBLUC_R_SQUARED 0.341, read-out: LUCIFERASE INFECTION ASSAY - IC50”, the IC50 amounted to 0.126 µM.

For `COc1ccc(NC(=O)c2cc(N(C)Cc3ccccc3)ncn2)cn1`, the IC90 came to 7.26 µM. Besides, the IC50 (HEPG2TOX_HILL_SLOPE 2.56, HEPG2TOX_R_SQUARED 0.944, PBLUC_HILL_SLOPE 1.8, PBLUC_R_SQUARED 0.498, read-out: LUCIFERASE INFECTION ASSAY - IC50) turned out to be 2.14 µM.

In the case of `CC(=O)c1cccc(-c2cnc3ccc(-c4ccc(F)cc4)nn23)c1`, the IC90 was found to be 4.45 µM. Further, where the note is “HEPG2TOX_HILL_SLOPE 2.73, HEPG2TOX_R_SQUARED 0.88, PBLUC_HILL_SLOPE 3.37, PBLUC_R_SQUARED 0.558, read-out: LUCIFERASE INFECTION ASSAY - IC50”, the IC50 was 2.32 µM.

As to `O=S(=O)(c1cc(C(F)(F)F)cc(C(F)(F)F)c1)N1CCC(C(c2ccccc2)c2ccccc2)CC1`, the IC90 was above 6.26 µM. Moreover, the half-inhibitory concentration (IC50) (FFLUC_HILL_SLOPE 21.5, FFLUC_R_SQUARED 0.833, read-out: LUCIFERASE INFECTION ASSAY - IC50) was above 6.26 µM.

On to `O=C1OC(C=NC23CC4CC(CC(C4)C2)C3)c2ccccc21` (stereo unspecified), for which the IC90 was above 11.2 µM. For the same compound, where the note is “PBLUC_HILL_SLOPE 9.77, PBLUC_R_SQUARED 0.255, read-out: LUCIFERASE INFECTION ASSAY - IC50”, the IC50 turned out to be 9.81 µM.

Consider `NC(=O)c1cc(-c2ccccc2)sc1NC(=O)Nc1ccccc1F`, for which the IC90 was above 10 µM. Also, the IC50 under setting [1] came out at 9.4 µM.

For the compound `Cc1c(C2=CCCCC2)c2ccccn2c1C(=O)c1cc2c(C)nn(-c3ccccc3)c2s1`, the IC90 was above 10 µM. Further, under setting [1], the IC50 was above 10 µM.

Take `CN(C)Cc1ccccc1CNC(=O)Nc1ccc(Cl)c(Cl)c1`: the IC90 is above 2 µM. For the same compound, the half-maximal inhibitory concentration (IC50) (PBLUC_HILL_SLOPE 1.7, PBLUC_R_SQUARED 0.0619, read-out: LUCIFERASE INFECTION ASSAY - IC50) is 0.986 µM.

Take `COc1ccc(-c2cnc3cnc(-c4ccccc4)cn23)cn1`: the IC90 was above 10.9 µM. Also, the IC50 (PBLUC_HILL_SLOPE 7.01, PBLUC_R_SQUARED 0.635, read-out: LUCIFERASE INFECTION ASSAY - IC50) is 9.42 µM.

On to `CNC(=S)Nc1cc(C(F)(F)F)cc(C(F)(F)F)c1`, for which the IC90 is 8.33 µM. Moreover, for the setting “PBLUC_HILL_SLOPE 3.27, PBLUC_R_SQUARED 0.572, read-out: LUCIFERASE INFECTION ASSAY - IC50”, the IC50 worked out at 4.26 µM.

On to `O=[N+]([O-])c1ccc(-c2nnc(SCc3c(Cl)cccc3Cl)s2)o1`, for which the IC90 is above 8.5 µM. In addition, the IC50 (FFLUC_HILL_SLOPE 3.16, FFLUC_R_SQUARED 0.676, read-out: LUCIFERASE INFECTION ASSAY - IC50) was above 8.5 µM.

In the case of `CC(=O)Nc1cccc(C(=O)/C=C/c2cn(-c3ccccc3)nc2-c2ccncc2)c1`, the IC90 was above 10 µM. In addition, the half-maximal inhibitory concentration (IC50) under setting [1] was above 10 µM.

With `CS(=O)(=O)c1nc2ccccc2n1CC(=O)c1ccc2c(c1)CCO2`, the IC90 was above 10 µM. The IC50 (PBLUC_HILL_SLOPE 0.389, PBLUC_R_SQUARED 0.133, read-out: LUCIFERASE INFECTION ASSAY - IC50) is above 10 µM.

`O=C(C1COc2ccccc2C1)N(Cc1ccccc1)c1ccccn1` (stereo unspecified): the IC90 is above 10 µM. In addition, the IC50 (HEPG2TOX_HILL_SLOPE 0.0154, HEPG2TOX_R_SQUARED 0.0147, read-out: LUCIFERASE INFECTION ASSAY - IC50) was above 10 µM.

Regarding `COc1cc(C(=O)Nc2ccc(C(=O)NC3CC3)cc2)cc(Cl)c1OC(C)C`, the IC90 was above 10 µM. The IC50 (PBLUC_HILL_SLOPE 2.4, PBLUC_R_SQUARED 0.128, read-out: LUCIFERASE INFECTION ASSAY - IC50) was determined as 6.06 µM.

On to `COc1ccc(NC(=O)c2ccn[nH]2)cc1NC(=O)c1ccc(Cl)cc1F`, for which the IC90 worked out at 4.87 µM. For the same compound, the IC50 (HEPG2TOX_HILL_SLOPE 3.17, HEPG2TOX_R_SQUARED 0.943, PBLUC_HILL_SLOPE 8.03, PBLUC_R_SQUARED 0.294, read-out: LUCIFERASE INFECTION ASSAY - IC50) was 3.7 µM.

`COc1ccccc1-n1c(SCC(=O)c2c[nH]c3ccccc23)nnc1-c1cccs1`: the IC90 amounted to 0.134 µM. The IC50 (PBLUC_HILL_SLOPE 12.6, PBLUC_R_SQUARED 0.859, read-out: LUCIFERASE INFECTION ASSAY - IC50) was 0.113 µM.

Take `O=C(Nc1nc(-c2ccccn2)cs1)C1CC1c1ccccc1F` (stereo unspecified): the IC90 is 3.57 µM. The IC50 (HEPG2TOX_HILL_SLOPE 7.24, HEPG2TOX_R_SQUARED 0.0806, PBLUC_HILL_SLOPE 12.4, PBLUC_R_SQUARED 0.768, read-out: LUCIFERASE INFECTION ASSAY - IC50) is 2.99 µM.

As for `COc1cc(/C=C(/C(=O)c2cccs2)c2nc3ccccc3[nH]2)cc(OC)c1O`, the IC90 is above 10 µM. Further, where the note is “HEPG2TOX_HILL_SLOPE 9.16, HEPG2TOX_R_SQUARED 0.911, PBLUC_HILL_SLOPE 3.79, PBLUC_R_SQUARED 0.1, read-out: LUCIFERASE INFECTION ASSAY - IC50”, the concentration for half-maximal inhibition (IC50) was found to be 7.39 µM.

As to `O=C(Cn1ncc(Cl)c(Cl)c1=O)N(CCc1ccccc1)Cc1ccccc1`, the IC90 stood at 6.37 µM. The IC50 (HEPG2TOX_HILL_SLOPE 33, HEPG2TOX_R_SQUARED 0.912, PBLUC_HILL_SLOPE 70.8, PBLUC_R_SQUARED 0.26, read-out: LUCIFERASE INFECTION ASSAY - IC50) is 6.18 µM.

As for `CCCCCCN(C(=O)CC(NC(=O)c1ccccc1)c1ccccc1)c1nc2ccccc2s1` (stereo unspecified), the IC90 was 9.24 µM. In addition, the IC50 (FFLUC_HILL_SLOPE 11.5, FFLUC_R_SQUARED 0.371, PBLUC_HILL_SLOPE 30.2, PBLUC_R_SQUARED 0.437, read-out: LUCIFERASE INFECTION ASSAY - IC50) was found to be 8.6 µM.

In the case of `CN(C)CCNC(=O)c1ccc(-c2cn3c(-c4ccc(Cl)cc4)cnc3cn2)cc1`, the IC90 worked out at 3.79 µM. The IC50 (HEPG2TOX_HILL_SLOPE 1.7, HEPG2TOX_R_SQUARED 0.889, PBLUC_HILL_SLOPE 9.39, PBLUC_R_SQUARED 0.389, read-out: LUCIFERASE INFECTION ASSAY - IC50) was found to be 3 µM.

Take `COc1ccc(-c2nccc3n[nH]c(-c4cccc(C(F)(F)F)c4)c23)cc1OC`: the IC90 is above 10 µM. Also, the IC50 (PBLUC_HILL_SLOPE 15.9, PBLUC_R_SQUARED 0.0621, read-out: LUCIFERASE INFECTION ASSAY - IC50) worked out at 9.75 µM.

Consider `NC(=O)c1c(NC(=O)COC(=O)C2=NN(c3ccccc3)C(=O)CC2)sc2c1CCC2`, for which the IC90 is above 10 µM. Moreover, the IC50 under setting [1] is above 10 µM.

As for `CC(C)c1ccccc1NC(=O)COC(=O)C(C)(C)Oc1ccc(Cl)cc1`, the IC90 was above 10 µM. Also, the IC50 under setting [1] is above 10 µM.

On to `CC(=O)c1csc(NC(=O)c2ccc(CSc3ccccc3)o2)n1`, for which the IC90 was above 10 µM. Also, the IC50 under setting [1] was above 10 µM.

Regarding `CCOC(=O)c1c(NC(=O)C2Cc3ccccc3CN2S(=O)(=O)c2cccs2)sc2c1CCCC2` (stereo unspecified), the IC90 was above 10 µM. Moreover, for the setting “HEPG2TOX_HILL_SLOPE 0.167, HEPG2TOX_R_SQUARED 0.0943, PBLUC_HILL_SLOPE 2.23, PBLUC_R_SQUARED 0.122, read-out: LUCIFERASE INFECTION ASSAY - IC50”, the IC50 came out at 6.53 µM.

Consider `CC(=O)Nc1ccc(-c2cnc3ccc(-c4cccnc4)nn23)cc1`, for which the IC90 worked out at 1.22 µM. For the same compound, under setting [1], the IC50 was found to be 0.572 µM.

As to `CS(=O)(=O)Nc1cccc(-c2cnc3ccc(Cc4ccc(F)cc4)nn23)c1`, the IC90 was determined as 5.12 µM. For the same compound, the IC50 (PBLUC_HILL_SLOPE 7.81, PBLUC_R_SQUARED 0.241, read-out: LUCIFERASE INFECTION ASSAY - IC50) was determined as 3.87 µM.

Take `CCOC(=O)CN1N=C(/C=C/c2ccc(C(C)C)cc2)CCC1=O`: the IC90 was above 10 µM. Moreover, the IC50 (HEPG2TOX_HILL_SLOPE 1.7, HEPG2TOX_R_SQUARED 0.981, read-out: LUCIFERASE INFECTION ASSAY - IC50) was above 10 µM.

For the compound `CCOc1ccc(-c2nnc(SCC(=O)Nc3ccccc3C(=O)NCc3ccccc3)o2)cc1`, the IC90 is above 10 µM. Moreover, the IC50 under setting [1] is 4.44 µM.

For the compound `CN(CC(=O)Nc1ccc(-c2nnc3n2CCCCC3)cc1)C1CCS(=O)(=O)C1` (stereo unspecified), the IC90 was above 10 µM. In addition, under setting [1], the IC50 was above 10 µM.

Turning to `CSc1nnc(-c2csc(S(=O)(=O)Nc3ccccc3Cl)c2)n1C`, the IC90 was above 8.23 µM. Moreover, the IC50 under setting [1] is above 8.23 µM.

Take `Cc1ccc(NC(=S)N/N=C2\C(=O)Nc3ccc([N+](=O)[O-])cc32)cc1`: the IC90 was above 10 µM. Moreover, for the setting “PBLUC_HILL_SLOPE 14.8, PBLUC_R_SQUARED 0.511, read-out: LUCIFERASE INFECTION ASSAY - IC50”, the IC50 was 8.89 µM.
